In PubChem BioAssay (NCI):
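GI50 is the concentration that inhibits growth by half. Definition used: TGI = concentration required for complete inhibition of growth.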

Legend:
Experiment in all cases: NCI anticancer screen, dose series, 384-well format
A498 renal = tested on: A498 renal
A549 NSCLC = tested on: A549 NSCLC
ACHN renal = tested on: ACHN renal
BT-549 breast = tested on: BT-549 breast
CAKI-1 renal = tested on: CAKI-1 renal
CCRF-CEM leukemia = tested on: CCRF-CEM leukemia
COLO 205 colon = tested on: COLO 205 colon
DU-145 prostate = tested on: DU-145 prostate
EKVX NSCLC = tested on: EKVX NSCLC
HCC-2998 colon = tested on: HCC-2998 colon
HCT-116 colon = tested on: HCT-116 colon
HCT-15 colon = tested on: HCT-15 colon
HS 578T breast = tested on: HS 578T breast
HT29 colon = tested on: HT29 colon
K-562 leukemia = tested on: K-562 leukemia
KM12 colon = tested on: KM12 colon
LOX IMVI melanoma = tested on: LOX IMVI melanoma
M14 melanoma = tested on: M14 melanoma
MALME-3M melanoma = tested on: MALME-3M melanoma
MCF7 breast = tested on: MCF7 breast
MDA-MB-231 breast = tested on: MDA-MB-231 breast
MDA-MB-468 breast = tested on: MDA-MB-468 breast
MOLT-4 leukemia = tested on: MOLT-4 leukemia
NCI-H322M lung = tested on: NCI-H322M lung
NCI-H460 NSCLC = tested on: NCI-H460 NSCLC
NCI/ADR-RES ovarian = tested on: NCI/ADR-RES ovarian
OVCAR-3 ovarian = tested on: OVCAR-3 ovarian
OVCAR-4 ovarian = tested on: OVCAR-4 ovarian
OVCAR-5 ovarian = tested on: OVCAR-5 ovarian
OVCAR-8 ovarian = tested on: OVCAR-8 ovarian
PC-3 prostate = tested on: PC-3 prostate
RPMI-8226 leukemia = tested on: RPMI-8226 leukemia
RXF 393 renal = tested on: RXF 393 renal
SF-268 CNS = tested on: SF-268 CNS
SF-295 CNS = tested on: SF-295 CNS
SF-539 CNS = tested on: SF-539 CNS
SK-MEL-2 melanoma = tested on: SK-MEL-2 melanoma
SK-OV-3 ovarian = tested on: SK-OV-3 ovarian
SNB-19 CNS = tested on: SNB-19 CNS
SNB-75 CNS = tested on: SNB-75 CNS
SR leukemia = tested on: SR leukemia
SW-620 colon = tested on: SW-620 colon
T-47D breast = tested on: T-47D breast
U251 glioblastoma = tested on: U251 glioblastoma
UACC-257 melanoma = tested on: UACC-257 melanoma
UACC-62 melanoma = tested on: UACC-62 melanoma
UO-31 renal = tested on: UO-31 renal

SMILES: C[C@@H](C(=O)Nc1ccc(Cl)cc1)C1CCC(c2ccnc3ccc(F)cc23)CC1 (some centres undefined)
- GI50 (A498 renal): 5.31 µM
- TGI (A498 renal): 21.1 µM
- GI50 (A549 NSCLC): 6.9 µM
- TGI (A549 NSCLC): 66.5 µM
- GI50 (ACHN renal): 9.63 µM
- TGI (ACHN renal): 41.4 µM
- GI50 (BT-549 breast): 7.14 µM
- TGI (BT-549 breast): 20.6 µM
- GI50 (CAKI-1 renal): 19.2 µM
- TGI (CAKI-1 renal): 54.7 µM
- GI50 (CCRF-CEM leukemia): 2.64 µM
- TGI (CCRF-CEM leukemia): 7.41 µM
- GI50 (COLO 205 colon): 17.4 µM
- TGI (COLO 205 colon): > 62.3 µM
- GI50 (DU-145 prostate): 8.74 µM
- TGI (DU-145 prostate): 33.2 µM
- GI50 (EKVX NSCLC): 4.09 µM
- TGI (EKVX NSCLC): 18.7 µM
- GI50 (HCC-2998 colon): 4.23 µM
- TGI (HCC-2998 colon): 15.9 µM
- GI50 (HCT-116 colon): 6.31 µM
- TGI (HCT-116 colon): 20.4 µM
- GI50 (HCT-15 colon): 11.8 µM
- TGI (HCT-15 colon): 25.6 µM
- GI50 (HS 578T breast): 12.7 µM
- TGI (HS 578T breast): 27.4 µM
- GI50 (HT29 colon): 9.74 µM
- TGI (HT29 colon): 23.1 µM
- GI50 (K-562 leukemia): 3.38 µM
- TGI (K-562 leukemia): 13.7 µM
- GI50 (KM12 colon): 5.81 µM
- TGI (KM12 colon): 19.8 µM
- GI50 (LOX IMVI melanoma): 8.67 µM
- TGI (LOX IMVI melanoma): 21.2 µM
- GI50 (M14 melanoma): 13 µM
- TGI (M14 melanoma): 40.8 µM
- GI50 (MALME-3M melanoma): 15.3 µM
- TGI (MALME-3M melanoma): 37.5 µM
- GI50 (MCF7 breast): 7.97 µM
- TGI (MCF7 breast): 25.7 µM
- GI50 (MDA-MB-231 breast): 13.3 µM
- TGI (MDA-MB-231 breast): 65.1 µM
- GI50 (MDA-MB-468 breast): 2.17 µM
- TGI (MDA-MB-468 breast): 8.1 µM
- GI50 (MOLT-4 leukemia): 2.22 µM
- TGI (MOLT-4 leukemia): 6.85 µM
- GI50 (NCI-H322M lung): 17.7 µM
- TGI (NCI-H322M lung): 78.2 µM
- GI50 (NCI-H460 NSCLC): 2.85 µM
- TGI (NCI-H460 NSCLC): 8.81 µM
- GI50 (NCI/ADR-RES ovarian): 5.62 µM
- TGI (NCI/ADR-RES ovarian): 22 µM
- GI50 (OVCAR-3 ovarian): 7.15 µM
- TGI (OVCAR-3 ovarian): 19.9 µM
- GI50 (OVCAR-4 ovarian): 13.9 µM
- TGI (OVCAR-4 ovarian): 50.2 µM
- GI50 (OVCAR-5 ovarian): 13 µM
- TGI (OVCAR-5 ovarian): 35.3 µM
- GI50 (OVCAR-8 ovarian): 10.4 µM
- TGI (OVCAR-8 ovarian): 25.8 µM
- GI50 (PC-3 prostate): 5.72 µM
- TGI (PC-3 prostate): 19 µM
- GI50 (RPMI-8226 leukemia): 2.58 µM
- TGI (RPMI-8226 leukemia): 7.6 µM
- GI50 (RXF 393 renal): 6.04 µM
- TGI (RXF 393 renal): 20.9 µM
- GI50 (SF-268 CNS): 6.42 µM
- TGI (SF-268 CNS): 22.7 µM
- GI50 (SF-295 CNS): 10 µM
- TGI (SF-295 CNS): 31.1 µM
- GI50 (SF-539 CNS): 14.2 µM
- TGI (SF-539 CNS): 27.5 µM
- GI50 (SK-MEL-2 melanoma): 3.07 µM
- TGI (SK-MEL-2 melanoma): 10.2 µM
- GI50 (SK-OV-3 ovarian): 16.3 µM
- TGI (SK-OV-3 ovarian): 42.7 µM
- GI50 (SNB-19 CNS): 17.5 µM
- TGI (SNB-19 CNS): 52.8 µM
- GI50 (SNB-75 CNS): 14.7 µM
- TGI (SNB-75 CNS): 37.9 µM
- GI50 (SR leukemia): 0.584 µM
- TGI (SR leukemia): 1.46 µM
- GI50 (SW-620 colon): 8.3 µM
- TGI (SW-620 colon): 22.6 µM
- GI50 (T-47D breast): 4.42 µM
- TGI (T-47D breast): 25.2 µM
- GI50 (U251 glioblastoma): 9.96 µM
- TGI (U251 glioblastoma): 26.2 µM
- GI50 (UACC-257 melanoma): 13.7 µM
- TGI (UACC-257 melanoma): 31.4 µM
- GI50 (UACC-62 melanoma): 14.9 µM
- TGI (UACC-62 melanoma): 29.3 µM
- GI50 (UO-31 renal): 15.8 µM
- TGI (UO-31 renal): 83.2 µM
